According to PubChem BioAssay (NCI):
Several values for one entry are separate records, joined by “and”; a condition that tells them apart may be missing. Equal values may be shown once.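 These data come from cells grown in 96-well plates and exposed to compound for 48 hours at five concentrations. GI50: concentration for 50% inhibition of growth. At the TGI there is no net growth.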

Tests used:
Assay in all cases: NCI tumour cell line growth inhibition, 48 h
UO-31 renal = system: UO-31 renal
OVCAR-8 ovarian = system: OVCAR-8 ovarian
SF-268 CNS = system: SF-268 CNS
SK-MEL-28 melanoma = system: SK-MEL-28 melanoma
HCC-2998 colon = system: HCC-2998 colon
KM20L2 colon = system: KM20L2 colon
NCI-H522 lung = system: NCI-H522 lung
CCRF-CEM leukemia = system: CCRF-CEM leukemia
HOP-92 NSCLC = system: HOP-92 NSCLC

Structure (SMILES) | TGI (UO-31 renal) | TGI (OVCAR-8 ovarian) | TGI (SF-268 CNS) | TGI (SK-MEL-28 melanoma) | TGI (HCC-2998 colon) | TGI (KM20L2 colon) | TGI (NCI-H522 lung) | TGI (CCRF-CEM leukemia) | GI50 (UO-31 renal) | GI50 (OVCAR-8 ovarian) | GI50 (SF-268 CNS) | GI50 (SK-MEL-28 melanoma) | GI50 (HCC-2998 colon) | GI50 (HOP-92 NSCLC) | TGI (HOP-92 NSCLC) | GI50 (NCI-H522 lung) | GI50 (CCRF-CEM leukemia)
O=[N+]([O-])c1ccc2c(c1)OCCOCCOc1ccc([N+](=O)[O-])cc1OCCOCCO2 | > 100 µM | > 100 µM | > 100 µM | > 100 µM | > 100 µM | > 100 µM | > 100 µM | > 100 µM |  |  |  |  |  |  |  |  | 
COC(=O)c1ccc(-c2nc3cc(F)c(F)cc3nc2C#N)cc1 | 33.5 µM | 13 µM | 4.64 µM | 33.9 µM | 16.1 µM |  | 35.4 µM | 18.7 µM | 11.2 µM | 4.65 µM | 1.5 µM | 9.58 µM | 8.41 µM | 9.8 µM | 21.1 µM | 6.36 µM | 2.27 µM
COC(=O)/C=C1\SC(=Nc2ccc(C(F)(F)F)cc2)N(CCc2c[nH]c3ccccc23)C1=O | 2.56 µM | 4.6 µM | 3.67 µM | 3.55 µM | 3.43 µM |  | 3.91 µM | 7.22 µM | 1.3 µM | 1.74 µM | 1.78 µM | 1.87 µM | 1.86 µM | 1.58 µM | 3.24 µM | 1.71 µM | 1.95 µM
O=C1C(Cl)=C(Oc2ccccc2)C(=O)c2ccccc21 | 3.23 µM | 36.8 µM | 18.7 µM | 27.1 µM | 15.9 µM |  | 2.96 µM | 8.32 µM | 1.23 µM | 14.3 µM | 5.37 µM | 13.5 µM | 4.28 µM | 1.8 µM | 4.56 µM | 1.51 µM | 2.23 µM
O=C1NC(=O)[C@@H](c2cn3c4c(cccc24)CCC3)[C@@H]1c1c[nH]c2ccccc12 | > 10 µM and 27.1 µM | > 10 µM and 14.3 µM | > 10 µM and 17.5 µM | > 10 µM and 19.6 µM | > 10 µM and 5.82 µM |  |  | > 10 µM and 41.2 µM | 0.552 µM and 0.519 µM | 0.492 µM and 0.561 µM | 1.32 µM and 0.911 µM | 1.04 µM and 0.66 µM | 0.59 µM and 0.49 µM | 0.354 µM and 1.68 µM | > 10 µM and 25.5 µM | 0.201 µM and 0.365 µM | 0.288 µM and 0.429 µM
COc1c(O)cc2oc3cc(O)c(CC=C(C)C)c(O)c3c(=O)c2c1C/C=C(\C)CCC=C(C)C | 8.97 µM | 10.6 µM | 10 µM | 10.3 µM | 13.6 µM |  | 10.8 µM | 32.5 µM | 4.62 µM | 5.45 µM | 5.56 µM | 5.4 µM | 7.06 µM | 6.52 µM | 11.5 µM | 5.92 µM | 11.7 µM
COc1ccc(/C=C(\C#N)n2nnc3cc(Cl)ccc32)cc1 | 32.4 µM | > 100 µM | > 100 µM | 31.2 µM | 8.14 µM |  | 0.704 µM | > 100 µM | 2.2 µM | 0.751 µM | 2 µM | 1.33 µM | 1.87 µM | 0.552 µM | 4.27 µM | 0.18 µM | 0.431 µM
O=C(CCl)Nc1ccccc1SCc1cc(Cl)cc2c1OCOC2 | 15 µM | 30.2 µM | 23.5 µM | 26.8 µM | 31.5 µM |  | 4 µM | 5.35 µM | 2.95 µM | 13 µM | 7.14 µM | 13.5 µM | 16.6 µM | 3.17 µM | 17.9 µM | 1.85 µM | 2.18 µM
COc1ccc(-n2c(-c3ccc(NC(=O)CCCl)cc3)nnc2-c2cc(OC)c(OC)c(OC)c2)cc1 | 4.37 µM | > 14.3 µM | > 14.3 µM | 14 µM | 7.07 µM |  | > 14.3 µM | > 14.3 µM | 1.94 µM | 7.87 µM | 4.09 µM | 3.56 µM | 3.05 µM | 4.1 µM | > 14.3 µM | 4.14 µM | 4.53 µM
C[C@@H](Oc1cc(-c2cnn(C3CCNCC3)c2)cnc1N)c1c(Cl)ccc(F)c1Cl | 4.74 µM | > 10 µM | > 10 µM | 3.54 µM | > 10 µM |  | 3.2 µM | 5.13 µM | 1.08 µM | 2.86 µM | 3.48 µM | 1.61 µM | 2.28 µM | 0.236 µM | 2.62 µM | 1.3 µM | 0.621 µM
O=C1c2cccnc2-c2nc(-c3ccccn3)cc3c2c1nc1ccccc13 | 0.219 µM | 0.402 µM | 2.5 µM | 1.75 µM | 1.48 µM |  | 0.32 µM |  | 0.0539 µM | 0.15 µM | 0.449 µM | 0.452 µM | 0.412 µM | 0.241 µM | 0.729 µM | 0.141 µM | 0.0619 µM
